Measurements from PubChem BioAssay AID1963825 (Molecular Pharmacology Branch, DTP, NCI, 2024).

Assay: Anticancer human tumor 997537-175-T-J1-PDC patient-derived colon adenocarcinoma cell line growth inhibition [POLQ]
Conditions: 997537-175-T-J1-PDC complex spheroid viability, combination with POLQ inhibitors; for IC50: curve of first compound; for viability, T/C: stronger effect = lower value; active = viability on the fitted dose curve at most 10% of control; inactive = the rest
Summary of the method: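 Three-cell-type spheroids modelling solid tumor plus stroma served as the readout system; POL inhibitors were tested individually and in combination, concentration ranges set by clinical Cmax where known.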

[1] = second compound 0.0316 µM, first compound 0.0316 µM
[2] = second compound 0.0316 µM, first compound 0.1 µM
[3] = second compound 0.0316 µM, first compound 0.316 µM
[4] = second compound 0.0316 µM, first compound 1 µM
[5] = second compound 0.0316 µM, first compound 3.16 µM
[6] = second compound 0.0316 µM, first compound 10 µM
[7] = second compound 0.1 µM, first compound 0.0316 µM
[8] = second compound 0.1 µM, first compound 0.1 µM
[9] = second compound 0.1 µM, first compound 0.316 µM
[10] = second compound 0.1 µM, first compound 1 µM
[11] = second compound 0.1 µM, first compound 3.16 µM
[12] = second compound 0.1 µM, first compound 10 µM
[13] = second compound 0.316 µM, first compound 0.0316 µM
[14] = second compound 0.316 µM, first compound 0.1 µM
[15] = second compound 0.316 µM, first compound 0.316 µM
[16] = second compound 0.316 µM, first compound 1 µM
[17] = second compound 0.316 µM, first compound 3.16 µM
[18] = second compound 0.316 µM, first compound 10 µM
[19] = second compound 1 µM, first compound 0.0316 µM
[20] = second compound 1 µM, first compound 0.1 µM
[21] = second compound 1 µM, first compound 0.316 µM
[22] = second compound 1 µM, first compound 1 µM
[23] = second compound 1 µM, first compound 3.16 µM
[24] = second compound 1 µM, first compound 10 µM
[25] = second compound 3.16 µM, first compound 0.0316 µM
[26] = second compound 3.16 µM, first compound 0.1 µM
[27] = second compound 3.16 µM, first compound 0.316 µM
[28] = second compound 3.16 µM, first compound 1 µM
[29] = second compound 3.16 µM, first compound 3.16 µM
[30] = second compound 3.16 µM, first compound 10 µM
[31] = second compound 10 µM, first compound 0.0316 µM
[32] = second compound 10 µM, first compound 0.1 µM
[33] = second compound 10 µM, first compound 0.316 µM
[34] = second compound 10 µM, first compound 1 µM
[35] = second compound 10 µM, first compound 3.16 µM
[36] = second compound 10 µM, first compound 10 µM
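Also: luminescence signal used as a surrogate for viable cells; spheroids exposed to drugs for seven days before readout.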

CC1COCCN1c1cc(C2(S(C)(=N)=O)CC2)nc(-c2ccnc3[nH]ccc23)n1 (stereo not drawn) + Nc1ccc(C#CCN(C(=O)Cc2ncc(C(F)(F)F)cc2C(F)(F)F)c2ccc(F)cc2)nn1
7.51 µM: IC50 (second compound 0.1 µM)
inactive: viability, T/C [1] 115% | viability, T/C [2] 107% | viability, T/C [3] 86.7% | viability, T/C [4] 96.5% | viability, T/C [5] 87.1% | viability, T/C [6] 57.2% | viability, T/C [7] 105% | viability, T/C [8] 105% | viability, T/C [9] 81.3% | viability, T/C [10] 95.4% | viability, T/C [11] 65.5% | viability, T/C [12] 43.9% | viability, T/C [13] 109% | viability, T/C [14] 103% | viability, T/C [15] 97.5% | viability, T/C [16] 79.2% | viability, T/C [17] 79.4% | viability, T/C [18] 71.7% | viability, T/C [19] 97.8% | viability, T/C [20] 108% | viability, T/C [21] 105% | viability, T/C [22] 81% | viability, T/C [23] 63.9% | viability, T/C [24] 52% | viability, T/C [25] 93.9% | viability, T/C [26] 91.2% | viability, T/C [27] 107% | viability, T/C [28] 92.4% | viability, T/C [29] 66.9% | viability, T/C [30] 40% | viability, T/C [31] 94.9% | viability, T/C [32] 94.6% | viability, T/C [33] 94.6% | viability, T/C [34] 81.7% | viability, T/C [35] 47% | viability, T/C [36] 55.8%
> 10 µM: IC50 (second compound 0.0316 µM) | IC50 (second compound 0.316 µM) | IC50 (second compound 1 µM) | IC50 (second compound 10 µM)
6.51 µM: IC50 (second compound 3.16 µM)

CC(C)n1c(=O)n(C)c2cnc3cc(F)c(-c4ccc(OCCCN5CCCCC5)nc4)cc3c21 + Cc1cccc(N(C)C(=O)C2C(O)CCN2c2nc(C)cc(C(F)(F)F)c2C#N)c1
inactive: viability, T/C [1] 94.2% | viability, T/C [2] 91.7% | viability, T/C [3] 105% | viability, T/C [4] 97.5% | viability, T/C [5] 98.7% | viability, T/C [6] 82.7% | viability, T/C [7] 96.7% | viability, T/C [8] 106% | viability, T/C [9] 90.8% | viability, T/C [10] 98.6% | viability, T/C [11] 103% | viability, T/C [12] 81.3% | viability, T/C [13] 103% | viability, T/C [14] 99.9% | viability, T/C [15] 105% | viability, T/C [16] 103% | viability, T/C [17] 90.2% | viability, T/C [18] 87.7% | viability, T/C [19] 87.2% | viability, T/C [20] 102% | viability, T/C [21] 92.5% | viability, T/C [22] 86% | viability, T/C [23] 96.8% | viability, T/C [24] 91.2% | viability, T/C [25] 87.1% | viability, T/C [26] 96.3% | viability, T/C [27] 90.2% | viability, T/C [28] 80% | viability, T/C [29] 98.8% | viability, T/C [30] 73.6% | viability, T/C [31] 99.6% | viability, T/C [32] 101% | viability, T/C [33] 86.8% | viability, T/C [34] 83.8% | viability, T/C [35] 91.8% | viability, T/C [36] 76.6%
> 10 µM: IC50 (second compound 0.0316 µM) | IC50 (second compound 0.1 µM) | IC50 (second compound 0.316 µM) | IC50 (second compound 1 µM) | IC50 (second compound 3.16 µM) | IC50 (second compound 10 µM)

C=CCn1c(=O)c2cnc(Nc3ccc(N4CCN(C)CC4)cc3)nc2n1-c1cccc(C(C)(C)O)n1 + Nc1ccc(C#CCN(C(=O)Cc2ncc(C(F)(F)F)cc2C(F)(F)F)c2ccc(F)cc2)nn1
inactive: viability, T/C (second compound 0.0316 µM, first compound 0.00316 µM) 92.5% | viability, T/C (second compound 0.0316 µM, first compound 0.01 µM) 99.7% | viability, T/C [1] 89.3% | viability, T/C [2] 97.9% | viability, T/C [3] 89.8% | viability, T/C [4] 50.6% | viability, T/C (second compound 0.1 µM, first compound 0.00316 µM) 95.9% | viability, T/C (second compound 0.1 µM, first compound 0.01 µM) 96.8% | viability, T/C [7] 94.4% | viability, T/C [8] 95.1% | viability, T/C [9] 98.4% | viability, T/C [10] 73% | viability, T/C (second compound 0.316 µM, first compound 0.00316 µM) 92.6% | viability, T/C (second compound 0.316 µM, first compound 0.01 µM) 97.3% | viability, T/C [13] 90.8% | viability, T/C [14] 82% | viability, T/C [15] 76.3% | viability, T/C [16] 55.1% | viability, T/C (second compound 1 µM, first compound 0.00316 µM) 88.3% | viability, T/C (second compound 1 µM, first compound 0.01 µM) 104% | viability, T/C [19] 94.4% | viability, T/C [20] 84.5% | viability, T/C [21] 92.9% | viability, T/C [22] 62.2% | viability, T/C (second compound 3.16 µM, first compound 0.00316 µM) 81.3% | viability, T/C (second compound 3.16 µM, first compound 0.01 µM) 93.7% | viability, T/C [25] 94.8% | viability, T/C [26] 94.3% | viability, T/C [27] 106% | viability, T/C [28] 55.1% | viability, T/C (second compound 10 µM, first compound 0.00316 µM) 96.5% | viability, T/C (second compound 10 µM, first compound 0.01 µM) 85.5% | viability, T/C [31] 87.6% | viability, T/C [32] 80.9% | viability, T/C [33] 97.4% | viability, T/C [34] 72.9%
> 1 µM: IC50 (second compound 0.0316 µM) | IC50 (second compound 0.1 µM) | IC50 (second compound 0.316 µM) | IC50 (second compound 1 µM) | IC50 (second compound 3.16 µM) | IC50 (second compound 10 µM)

CCc1cc2c(N3CCc4c(cc(Cn5ccnc5)cc4-c4cn(C)nc4C(F)(F)F)C3=O)cc(C)nc2c(OC)n1 + Cc1cccc(N(C)C(=O)C2C(O)CCN2c2nc(C)cc(C(F)(F)F)c2C#N)c1
inactive: viability, T/C [1] 109% | viability, T/C [2] 113% | viability, T/C [3] 97% | viability, T/C [4] 82.8% | viability, T/C [5] 87.1% | viability, T/C [6] 52.4% | viability, T/C [7] 108% | viability, T/C [8] 105% | viability, T/C [9] 84.1% | viability, T/C [10] 90.6% | viability, T/C [11] 75.2% | viability, T/C [12] 74.6% | viability, T/C [13] 83.5% | viability, T/C [14] 103% | viability, T/C [15] 82.6% | viability, T/C [16] 84.1% | viability, T/C [17] 82.9% | viability, T/C [18] 60.9% | viability, T/C [19] 91.2% | viability, T/C [20] 91.7% | viability, T/C [21] 85.9% | viability, T/C [22] 86.9% | viability, T/C [23] 111% | viability, T/C [24] 63.3% | viability, T/C [25] 97.1% | viability, T/C [26] 115% | viability, T/C [27] 92.2% | viability, T/C [28] 82.7% | viability, T/C [29] 61.6% | viability, T/C [30] 59.5% | viability, T/C [31] 102% | viability, T/C [32] 91.8% | viability, T/C [33] 105% | viability, T/C [34] 77.2% | viability, T/C [35] 74% | viability, T/C [36] 53.6%
> 10 µM: IC50 (second compound 0.0316 µM) | IC50 (second compound 0.1 µM) | IC50 (second compound 0.316 µM) | IC50 (second compound 1 µM) | IC50 (second compound 3.16 µM) | IC50 (second compound 10 µM)
